Patent US20240209053A1 (Protagonist Therapeutics, Inc., priority 2021, published 2024)
pIC50: −log10 of the molar value. Numbered stars: 1 amine (or outer) side, 2 acyl side, 3 side chain; on linkers, the order of the positions; unused ones are H or OH. Bridge positions count the residues as written; N and C are the ends. Square brackets hold non-standard residues; d marks the D form. Side chains are listed from the residue outwards. Peptide text beside a SMILES is read from it. * marks the point of attachment. Dip = N[C@H](C(=O)O)C(c1ccccc1)c1ccccc1; Hag = O=C([C@H](CCC=[*:3])N[*:1])[*:2]; Palmitoyl = CCCCCCCCCCCCCCCC(=O)*; NMeF = CN[C@@H](Cc1ccccc1)C(=O)O; β3hF = N[C@H](CC(=O)O)Cc1ccccc1; Isovaleryl = CC(C)CC(=O)*; Ahx = NCCCCCC(=O)O; GABA = NCCCC(=O)O

Legend:
[1] = molecular target: T1, human ferroportin (SLC40A1) (Homo sapiens, UniProt Q9NP59); experiment: FPN activity assay: internalization/degradation of ferroportin-GFP in stably transfected HEK293 cells (decrease in GFP fluorescence); format: cell-based; conditions: compound incubated at least 18 hours
T1 sequence (Q9NP59 1-571): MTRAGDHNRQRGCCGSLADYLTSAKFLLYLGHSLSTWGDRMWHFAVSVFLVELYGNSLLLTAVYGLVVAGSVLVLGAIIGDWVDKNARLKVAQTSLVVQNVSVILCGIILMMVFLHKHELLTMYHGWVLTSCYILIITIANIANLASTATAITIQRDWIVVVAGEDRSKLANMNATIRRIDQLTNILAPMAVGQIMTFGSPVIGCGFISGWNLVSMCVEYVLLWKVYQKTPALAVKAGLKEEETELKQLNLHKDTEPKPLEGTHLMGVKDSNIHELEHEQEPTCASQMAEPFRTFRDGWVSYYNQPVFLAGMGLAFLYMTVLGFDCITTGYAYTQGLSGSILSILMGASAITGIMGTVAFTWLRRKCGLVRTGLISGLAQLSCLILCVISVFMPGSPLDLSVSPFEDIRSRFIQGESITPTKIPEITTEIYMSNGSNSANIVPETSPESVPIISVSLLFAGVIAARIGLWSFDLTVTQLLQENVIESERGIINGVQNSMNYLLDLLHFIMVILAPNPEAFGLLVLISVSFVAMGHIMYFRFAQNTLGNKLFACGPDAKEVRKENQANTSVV
Method: Peptide analogues were tested in vitro for induction of internalization of the human ferroportin protein. Following internalization, the ferroporin protein is degraded. The assay used (FPN activity assay) measures a decrease in fluorescence of the receptor. The cDNA encoding the human ferroportin (SLC40A1) was cloned from a cDNA clone from Origene (NM_014585). The DNA encoding the ferroportin was amplified by PCR using primers also encoding terminal restriction sites for subcloning, but without the termination codon. The ferroportin receptor was subcloned into a mammalian GFP expression vector containing a neomycin (G418) resistance marker in such that the reading frame of the ferroportin was fused in frame with the GFP protein. The fidelity of the DNA encoding the protein was confirmed by DNA sequencing. HEK293 cells were used for transfection of the ferroportin-GFP receptor expression plasmid. The cells were grown according to standard protocol in growth medium and transfected with the plasmids using Lipofectamine (manufacturer's protocol, Invitrogen). The cells stably expressing ferroportin-GFP were selected using G418 in the growth medium (in that only cells that have taken up and incorporated the cDNA expression plasmid survive) and sorted several times on a Cytomation MoFloTM cell sorter to obtain the GFP-positive cells (488 nm/530 nm). The cells were propagated and frozen in aliquots. […] Compound was added to desired final concentration for at least 18 hours in the incubator. […] Compound was added to desired final concentration for at least 18 hours but no more than 24 hours in the incubator. […] The “RI” in RI-Mini-Hepcidin refers to Retro Inverse. A retro inverse peptide is a peptide with a reversed sequence in all D amino acids. An example is that […] becomes […]. The EC50 of these reference compounds for ferroportin internalization/degradation was determined according to the FPN activity assay described above. These peptides served as control standards.

[2] = molecular target: T2, ferroportin (Homo sapiens, UniProt Q9NP59); experiment: T47D cell-based ferroportin internalization assay in presence of 0.5% mouse serum albumin (MSA); conditions: T47D cells
T2 sequence (Q9NP59 1-571): T1 sequence (Q9NP59 1-571)
Method: The potency of the peptides in causing ferroportin internalization was evaluated in a T47D cell-based assay. […] In this internalization assay, the potency of the test peptides was evaluated in presence of serum albumin which is the main protein component in the blood. T47D cells were maintained in RPMI media (containing required amount of fetal bovine serum) and regularly sub-cultured. In preparation for the assay, the cells were seeded in 96-well plates at a density of 80-100 k cells per well in 100 ul volume and allowed to rest overnight. On the next day, test peptides were first prepared in dilution series (10-point series, starting concentration of ˜5 μM, typically 3-4×fold dilution steps), all with 0.5% mouse serum albumin (MSA purified from mouse serum; Sigma, A3139). The test peptide dilution series were allowed to incubate at room temperature for 30 min. Then the media was aspirated from the 96-well cell plate and test peptide dilution series were added. After 1 hr incubation, the media with test peptides was aspirated out and AF647-conjugated detection peptide was added at fixed concentration of 200 nM. The AF647-conjugated detection peptide was previously verified to bind to ferroportin and cause its internalization. The cells were washed again after a 2 hr incubation in preparation for flow cytometry analysis. The Median Fluorescence Intensity (MFI) of the AF647-positive population was measured (after removing dead cells and non-singlets from the analysis). The MFI values were used to generate a dose-response curve and obtain IC50 potencies for the test peptides. The IC50 potencies were calculated by using 4-parameter non-linear fitting function in Graphpad Prism (Table 6A).

Row | SMILES | pIC50 [1] | pIC50 [2]
1 | CCCCCCCCCCCCCCCC(=O)NCCCCCC(=O)NCCCC[C@@H]1NC(=O)[C@H](C)NC(=O)[C@@H]2CCCN2C(=O)[C@H](C(c2ccccc2)c2ccccc2)NC(=O)[C@H](Cc2c[nH]cn2)NC(=O)[C@H]([C@@H](C)O)NC(=O)[C@@H](NC(=O)CC(C)C)CCC=CCC[C@@H](C(=O)N[C@H](CC(=O)N[C@H](CCCCN)C(N)=O)Cc2ccccc2)NC1=O (single isomer, unassigned) [Compd 37] | 6.30 to 7.00 | 6.30 to 7.00
2 | CCCCCCCCCCCCCCCC(=O)NCCCCCC(=O)NCCCC[C@H](NC(=O)C[C@H](Cc1ccccc1)NC(=O)[C@@H]1CCC=CCC[C@H](NC(=O)[C@@H]2CCCN2C(=O)[C@@H](NC(=O)[C@H](Cc2c[nH]cn2)NC(=O)[C@@H](NC(=O)[C@H](CCC(=O)O)NC(=O)CC(C)C)[C@@H](C)O)C(c2ccccc2)c2ccccc2)C(=O)N[C@@H]([C@@H](C)CC)C(=O)N1)C(=O)N[C@H](CCCCN)C(N)=O [Compd 6] (Isovaleryl-ETH[Dip]P[Hag]I[Hag][β3hF]K([Ahx-Palmitoyl])[dK]-NH2; staple 6-8) | 7.00 to 8.00 | 8.00 to 9.00
3 | CCCCCCCCCCCCCCCC(=O)NCCCCCC(=O)NCCCC[C@H](NC(=O)C[C@H](Cc1ccccc1)NC(=O)[C@@H](CCCCN)NC(=O)[C@@H]1CCC=CCC[C@H](NC(=O)[C@@H]2CCCN2C(=O)[C@@H](NC(=O)[C@H](Cc2c[nH]cn2)NC(=O)[C@@H](NC(=O)[C@H](CCC(=O)O)NC(=O)CC(C)C)[C@@H](C)O)C(c2ccccc2)c2ccccc2)C(=O)N1)C(=O)N[C@H](CCCCN)C(N)=O [Compd 15] | 7.00 to 8.00 | 8.00 to 9.00
4 | CCCCCCCCCCCCCCCC(=O)NCCCCCC(=O)NCCCC[C@H](NC(=O)C[C@H](Cc1ccccc1)NC(=O)[C@@H]1CCC=CCC[C@H](NC(=O)CC(C)C)C(=O)N[C@@H]([C@@H](C)O)C(=O)N[C@@H](Cc2c[nH]cn2)C(=O)N[C@@H](C(c2ccccc2)c2ccccc2)C(=O)N2CCC[C@H]2C(=O)N[C@@H](C)C(=O)N[C@@H]([C@@H](C)CC)C(=O)N1)C(N)=O [Compd 17] | 7.00 to 8.00 | 8.00 to 9.00
5 | CCCCCCCCCCCCCCCC(=O)NCCCCCC(=O)NCCCC[C@H](NC(=O)[C@@H]1CCC=CCC[C@H](NC(=O)CC(C)C)C(=O)N[C@@H]([C@@H](C)O)C(=O)N[C@@H](Cc2c[nH]cn2)C(=O)N[C@@H](C(c2ccccc2)c2ccccc2)C(=O)N2CCC[C@H]2C(=O)N[C@@H](C)C(=O)N[C@@H]([C@@H](C)CC)C(=O)N1)C(N)=O [Compd 18] (Isovaleryl-[Hag]TH[Dip]PAI[Hag]K([Ahx-Palmitoyl])-NH2; staple 1-8) | 6.30 to 7.00 | 7.00 to 8.00
6 | CCCCCCCCCCCCCCCC(=O)NCCCCCC(=O)NCCCC[C@H](NC(=O)C[C@H](Cc1ccccc1)NC(=O)[C@@H]1CC=CCC[C@H](NC(=O)CC(C)C)C(=O)N[C@@H]([C@@H](C)O)C(=O)N[C@@H](Cc2c[nH]cn2)C(=O)N[C@@H](C(c2ccccc2)c2ccccc2)C(=O)N2CCC[C@H]2C(=O)N[C@@H](C)C(=O)N[C@@H]([C@@H](C)CC)C(=O)N1)C(=O)N[C@@H](CCCNC(=N)N)C(N)=O [Compd 22] | 8.00 to 9.00 | 7.00 to 8.00
7 | CCCCCCCCCCCCCCCC(=O)NCCCCCC(=O)NCCCC[C@H](NC(=O)C[C@H](Cc1ccccc1)NC(=O)[C@@H]1CCC=CC[C@H](NC(=O)CC(C)C)C(=O)N[C@@H]([C@@H](C)O)C(=O)N[C@@H](Cc2c[nH]cn2)C(=O)N[C@@H](C(c2ccccc2)c2ccccc2)C(=O)N2CCC[C@H]2C(=O)N[C@@H](C)C(=O)N[C@@H]([C@@H](C)CC)C(=O)N1)C(=O)N[C@@H](CCCNC(=N)N)C(N)=O [Compd 23] | 7.00 to 8.00 | 8.00 to 9.00
8 | CCCCCCCCCCCCCCCC(=O)NCCCCCC(=O)NCCCC[C@@H]1NC(=O)[C@@H]2CCCN2C(=O)[C@H](C(c2ccccc2)c2ccccc2)NC(=O)[C@H](Cc2c[nH]cn2)NC(=O)[C@H]([C@@H](C)O)NC(=O)[C@@H](NC(=O)CC(C)C)CCC=CCC[C@@H](C(=O)N[C@H](CC(N)=O)Cc2ccccc2)NC(=O)[C@H]([C@@H](C)CC)NC1=O [Compd 24] (Isovaleryl-[Hag]TH[Dip]PK([Ahx-Palmitoyl])I[Hag][β3hF]-NH2; staple 1-8) | 7.00 to 8.00 | 7.00 to 8.00
9 | CCCCCCCCCCCCCCCC(=O)NCCCCCC(=O)NCCCC[C@@H]1NC(=O)[C@H](C)NC(=O)[C@@H]2CCCN2C(=O)[C@H](C(c2ccccc2)c2ccccc2)NC(=O)[C@H](Cc2c[nH]cn2)NC(=O)[C@H]([C@@H](C)O)NC(=O)[C@@H](NC(=O)CC(C)C)CCC=CCC[C@@H](C(=O)N[C@H](CC(N)=O)Cc2ccccc2)NC1=O [Compd 25] (Isovaleryl-[Hag]TH[Dip]PAK([Ahx-Palmitoyl])[Hag][β3hF]-NH2; staple 1-8) | 6.30 to 7.00 | 6.30 to 7.00
10 | CCCCCCCCCCCCCCCC(=O)NCCCCCC(=O)NCCCC[C@H](NC(=O)C[C@H](Cc1ccccc1)NC(=O)[C@@H]1CCC=CCC[C@H](NC(=O)CC(C)C)C(=O)N[C@@H]([C@@H](C)O)C(=O)N(C)[C@@H](Cc2c[nH]cn2)C(=O)N[C@@H](C(c2ccccc2)c2ccccc2)C(=O)N2CCC[C@H]2C(=O)N[C@@H](C)C(=O)N[C@@H]([C@@H](C)CC)C(=O)N1)C(=O)N[C@H](CCCCN)C(N)=O [Compd 50] | – | < 6.30
11 | CCCCCCCCCCCCCCCC(=O)NCCCCCC(=O)NCCCC[C@H](NC(=O)C[C@H](Cc1ccccc1)NC(=O)[C@@H]1CCC=CCC[C@H](NC(=O)CC(C)C)C(=O)N[C@@H]([C@@H](C)O)C(=O)N[C@@H](Cc2c[nH]cn2)C(=O)N(C)[C@@H](Cc2ccccc2)C(=O)N2CCC[C@H]2C(=O)N[C@@H](C)C(=O)N[C@@H]([C@@H](C)CC)C(=O)N1)C(=O)N[C@H](CCCCN)C(N)=O [Compd 51] (Isovaleryl-[Hag]TH[NMeF]PAI[Hag][β3hF]K([Ahx-Palmitoyl])[dK]-NH2; staple 1-8) | – | < 6.30
12 | CCCCCCCCCCCCCCCC(=O)NCCCCCC(=O)NCCCC[C@H](NC(=O)C[C@H](Cc1ccccc1)NC(=O)[C@@H]1CCC=CCC[C@H](NC(=O)CC(C)C)C(=O)N[C@@H]([C@@H](C)O)C(=O)N[C@@H](Cc2c[nH]cn2)C(=O)N[C@@H](CC(C)(C)C)C(=O)N2CCC[C@H]2C(=O)N[C@@H](C)C(=O)N[C@@H]([C@@H](C)CC)C(=O)N1)C(=O)N[C@H](CCCCN)C(N)=O [Compd 60] | 7.00 to 8.00 | –
13 | CCCCCCCCCCCCCCCC(=O)NCCCCCC(=O)NCCCC[C@H](NC(=O)C[C@H](Cc1ccccc1)NC(=O)[C@@H]1CCC=CCC[C@H](NC(=O)CC(C)C)C(=O)N[C@@H]([C@@H](C)O)C(=O)N[C@@H](Cc2c[nH]cn2)C(=O)N[C@@H](C(c2ccccc2)c2ccccc2)C(=O)N2CCC[C@H]2C(=O)NCCCC(=O)N1)C(=O)N[C@H](CCCCN)C(N)=O [Compd 66] (Isovaleryl-[Hag]TH[Dip]P[GABA][Hag][β3hF]K([Ahx-Palmitoyl])[dK]-NH2; staple 1-7) | 7.00 to 8.00 | –
14 | CCCCCCCCCCCCCCCC(=O)NCCCCCC(=O)NCCCC[C@@H]1NC(=O)C[C@H](Cc2ccccc2)NC(=O)[C@@H](CCCCN)NC(=O)[C@H]([C@@H](C)CC)NC(=O)[C@H](C)NC(=O)[C@@H]2CCCN2C(=O)[C@H](C(c2ccccc2)c2ccccc2)NC(=O)[C@H](Cc2c[nH]cn2)NC(=O)[C@H]([C@@H](C)O)NC(=O)[C@@H](NC(=O)CC(C)C)CCC=CCC[C@@H](C(N)=O)NC1=O [Compd 84] (Isovaleryl-[Hag]TH[Dip]PAI[dK][β3hF]K([Ahx-Palmitoyl])[Hag]-NH2; staple 1-11) | 6.30 to 7.00 | –
